Experimental data from PMC9234961 (Journal of Medicinal Chemistry, 2022).
pIC50: −log10 of the molar value. Values joined by “and” are separate entries in the source; they are usually repeats but may differ in a detail not shown here. Equal entries are not always repeated.

Tests used:
CCKAR = molecular target: T1, CCKAR (Homo sapiens, UniProt P32238); test: SAFETYScan GPCR Calcium Flux, Antagonist; format: cell-based
T1 sequence (P32238 1-428): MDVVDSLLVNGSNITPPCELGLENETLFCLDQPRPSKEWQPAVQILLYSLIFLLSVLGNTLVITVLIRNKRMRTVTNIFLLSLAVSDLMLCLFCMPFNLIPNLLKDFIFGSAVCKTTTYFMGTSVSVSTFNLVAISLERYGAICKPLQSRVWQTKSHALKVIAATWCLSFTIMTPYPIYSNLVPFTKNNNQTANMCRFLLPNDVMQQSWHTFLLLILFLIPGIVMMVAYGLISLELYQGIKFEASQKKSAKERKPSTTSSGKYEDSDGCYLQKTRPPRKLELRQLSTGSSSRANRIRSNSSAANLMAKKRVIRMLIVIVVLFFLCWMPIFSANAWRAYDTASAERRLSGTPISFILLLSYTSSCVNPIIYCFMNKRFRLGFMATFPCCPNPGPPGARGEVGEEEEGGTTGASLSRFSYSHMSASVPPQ
Source text: (§1) Supplement jm1c02175_si_002.xlsx, sheet "SAFETYScan" | column: RC50 (uM); Max Response

EDNRA = molecular target: T2, EDNRA (Homo sapiens, UniProt P25101); test: SAFETYScan GPCR Calcium Flux, Antagonist; format: cell-based
T2 sequence (P25101 21-427): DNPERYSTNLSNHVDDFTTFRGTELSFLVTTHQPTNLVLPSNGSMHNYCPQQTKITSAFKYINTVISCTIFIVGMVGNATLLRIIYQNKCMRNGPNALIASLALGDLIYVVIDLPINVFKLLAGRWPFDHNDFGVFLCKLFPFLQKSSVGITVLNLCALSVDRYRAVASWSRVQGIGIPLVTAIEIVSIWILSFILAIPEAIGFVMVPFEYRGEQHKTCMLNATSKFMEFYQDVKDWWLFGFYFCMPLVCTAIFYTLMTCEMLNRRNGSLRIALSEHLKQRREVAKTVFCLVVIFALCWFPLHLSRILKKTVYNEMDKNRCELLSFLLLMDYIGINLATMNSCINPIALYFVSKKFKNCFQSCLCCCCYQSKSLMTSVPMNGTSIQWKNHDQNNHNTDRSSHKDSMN
Source text: as §1

AVPR1A = AVPR1A (Homo sapiens, UniProt P37288); test: SAFETYScan GPCR Calcium Flux, Antagonist; format: cell-based
Source text: as §1

ADORA2A = ADORA2A (Homo sapiens, UniProt P29274); test: SAFETYScan GPCR Calcium Flux, Antagonist; format: cell-based
Source text: as §1

HTR2B = molecular target: T3, HTR2B (Homo sapiens, UniProt P41595); test: SAFETYScan GPCR Calcium Flux, Antagonist; format: cell-based
T3 construct: expressed in transfected cells
Source text: as §1

HRH1 = HRH1 (Homo sapiens, UniProt P35367); test: SAFETYScan GPCR Calcium Flux, Antagonist; format: cell-based
Source text: as §1

CHRM1 = molecular target: T4, CHRM1 (Homo sapiens, UniProt P11229); test: SAFETYScan GPCR Calcium Flux, Antagonist; format: cell-based
T4 sequence (P11229 1-460): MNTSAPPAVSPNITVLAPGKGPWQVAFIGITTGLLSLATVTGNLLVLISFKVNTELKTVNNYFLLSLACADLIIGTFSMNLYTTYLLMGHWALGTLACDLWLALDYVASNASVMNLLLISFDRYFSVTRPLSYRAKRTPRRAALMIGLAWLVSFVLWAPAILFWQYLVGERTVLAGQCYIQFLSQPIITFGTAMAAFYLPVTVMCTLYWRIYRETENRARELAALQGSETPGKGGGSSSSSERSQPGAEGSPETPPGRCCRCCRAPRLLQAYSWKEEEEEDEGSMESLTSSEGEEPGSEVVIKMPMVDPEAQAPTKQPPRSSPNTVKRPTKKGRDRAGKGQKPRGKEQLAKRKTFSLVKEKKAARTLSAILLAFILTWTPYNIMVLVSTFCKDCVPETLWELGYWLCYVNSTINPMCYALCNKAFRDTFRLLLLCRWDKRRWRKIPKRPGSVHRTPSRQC
Source text: as §1

HTR2A = HTR2A (Homo sapiens, UniProt P28223); test: SAFETYScan GPCR Calcium Flux, Antagonist; format: cell-based
Source text: as §1

CHRM3 = CHRM3 (Homo sapiens, UniProt P20309); test: SAFETYScan GPCR Calcium Flux, Antagonist; format: cell-based
Source text: as §1

OCI-Ly3 = test: Cell proliferation assay (14 days), OCI-Ly3
Experimental: Cells were seeded in 96-well culture plates at a density of 2500 cells/well in RPMI-1640 medium (Sigma-
Aldrich) supplemented with 10% FBS (Gibco). Compounds were initially dispensed into 96-well U-bottom
plates using an Echo 550 acoustic dispenser (Labcyte Inc.), then diluted in RPMI-1640 medium and
transferred onto the cells. Cells were treated with 8 compound concentrations in duplicate, ranging from
with compound for 14 days, with medium changes at days 3, 7 and 10 carried out as follows: fresh 96-well
cell culture plates were prepared containing 100 µl medium plus compound at the assay concentrations
(white plates were used on day 10 to optimise luminescence measurement). Assay plates containing cells
were vortexed to mix and cell density in one control well was counted using a Coulter Z2 cell counter
(Beckman Coulter). The volume of medium containing 2500 cells in the control well was calculated and this volume of cells was transferred from every well of the assay plates to the corresponding well of the fresh plates containing compound. After 14 days, CellTiter Glo reagent (Promega) was added to the medium in each well of the assay plate at a ratio of 1:2, mixed on a plate shaker, then incubated at room temperature for 10 minutes. Luminescence was measured using an Envision plate reader (Perkin Elmer) and the relative luminescence at each compound concentration, compared to DMSO alone, was calculated. GI50 were determined using a 4-parameter curve fit in Dotmatics (Bishops Stortford, UK).

HTR1A = molecular target: T5, HTR1A (Homo sapiens, UniProt P08908); test: SAFETYScan GPCR cAMP, Antagonist; format: cell-based
T5 construct: expressed in transfected cells
T5 sequence (P08908 1-422): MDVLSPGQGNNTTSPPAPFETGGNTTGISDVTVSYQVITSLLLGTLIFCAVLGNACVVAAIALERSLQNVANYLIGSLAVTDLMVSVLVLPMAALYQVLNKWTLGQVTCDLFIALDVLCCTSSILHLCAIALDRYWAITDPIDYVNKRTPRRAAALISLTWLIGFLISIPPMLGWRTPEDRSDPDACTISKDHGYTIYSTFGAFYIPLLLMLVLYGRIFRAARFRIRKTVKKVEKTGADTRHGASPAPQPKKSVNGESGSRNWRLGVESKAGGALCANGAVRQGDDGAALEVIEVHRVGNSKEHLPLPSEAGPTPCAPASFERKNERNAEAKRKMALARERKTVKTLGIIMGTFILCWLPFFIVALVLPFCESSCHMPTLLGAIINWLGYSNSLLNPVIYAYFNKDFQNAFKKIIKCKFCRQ
Source text: as §1

DRD1 = molecular target: T6, DRD1 (Homo sapiens, UniProt P21728); test: SAFETYScan GPCR cAMP, Antagonist; format: cell-based
T6 construct: expressed in transfected cells
Source text: as §1

ADRB1 = molecular target: T7, ADRB1 (Homo sapiens, UniProt P08588); test: SAFETYScan GPCR cAMP, Antagonist; format: cell-based
T7 construct: expressed in transfected cells
Source text: as §1

human BCL6 BTB domain = human BCL6 BTB domain (Homo sapiens, UniProt P41182)

CHRM3, sequence (P20309 whole entry): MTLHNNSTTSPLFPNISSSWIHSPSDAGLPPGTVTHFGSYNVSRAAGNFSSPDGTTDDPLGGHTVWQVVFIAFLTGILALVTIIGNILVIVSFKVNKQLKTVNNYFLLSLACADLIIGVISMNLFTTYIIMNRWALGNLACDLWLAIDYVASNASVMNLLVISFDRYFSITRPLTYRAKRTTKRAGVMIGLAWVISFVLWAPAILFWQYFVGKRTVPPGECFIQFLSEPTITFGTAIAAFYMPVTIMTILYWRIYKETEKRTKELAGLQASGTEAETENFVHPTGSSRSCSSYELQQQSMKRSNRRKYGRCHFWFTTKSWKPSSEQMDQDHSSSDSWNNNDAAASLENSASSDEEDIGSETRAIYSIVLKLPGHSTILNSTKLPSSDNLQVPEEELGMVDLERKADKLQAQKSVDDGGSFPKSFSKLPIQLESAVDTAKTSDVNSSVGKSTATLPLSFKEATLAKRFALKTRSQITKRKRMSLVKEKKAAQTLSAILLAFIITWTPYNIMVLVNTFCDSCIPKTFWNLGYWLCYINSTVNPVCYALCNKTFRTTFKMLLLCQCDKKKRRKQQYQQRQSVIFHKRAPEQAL
HRH1, sequence (P35367 whole entry): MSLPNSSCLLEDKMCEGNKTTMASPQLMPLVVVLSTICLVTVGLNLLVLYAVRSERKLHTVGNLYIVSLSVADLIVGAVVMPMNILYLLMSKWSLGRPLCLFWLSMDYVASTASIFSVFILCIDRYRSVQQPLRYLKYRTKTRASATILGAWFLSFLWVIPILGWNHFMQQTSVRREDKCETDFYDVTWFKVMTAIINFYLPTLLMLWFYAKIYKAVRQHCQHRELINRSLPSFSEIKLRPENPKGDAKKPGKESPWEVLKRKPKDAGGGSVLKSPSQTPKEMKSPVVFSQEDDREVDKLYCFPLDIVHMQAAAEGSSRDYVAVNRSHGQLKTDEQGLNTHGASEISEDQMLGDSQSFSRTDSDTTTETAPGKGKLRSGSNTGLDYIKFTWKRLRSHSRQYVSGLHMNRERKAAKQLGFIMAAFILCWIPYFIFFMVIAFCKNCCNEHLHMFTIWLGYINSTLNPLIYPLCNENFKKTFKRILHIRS
T7 sequence (P08588 whole entry): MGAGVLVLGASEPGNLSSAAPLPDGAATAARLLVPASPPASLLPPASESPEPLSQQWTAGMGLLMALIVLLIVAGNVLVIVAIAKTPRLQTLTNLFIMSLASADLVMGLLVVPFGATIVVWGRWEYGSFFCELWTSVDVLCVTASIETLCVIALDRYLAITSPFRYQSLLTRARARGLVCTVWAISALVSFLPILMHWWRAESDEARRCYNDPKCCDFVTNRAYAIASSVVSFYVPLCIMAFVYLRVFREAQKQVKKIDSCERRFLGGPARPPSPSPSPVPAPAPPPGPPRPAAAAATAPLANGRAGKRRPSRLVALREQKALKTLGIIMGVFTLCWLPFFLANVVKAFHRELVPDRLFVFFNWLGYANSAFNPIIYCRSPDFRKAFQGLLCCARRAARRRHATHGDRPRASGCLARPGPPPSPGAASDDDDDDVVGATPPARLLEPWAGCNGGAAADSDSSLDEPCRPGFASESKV
T3 sequence (P41595 whole entry): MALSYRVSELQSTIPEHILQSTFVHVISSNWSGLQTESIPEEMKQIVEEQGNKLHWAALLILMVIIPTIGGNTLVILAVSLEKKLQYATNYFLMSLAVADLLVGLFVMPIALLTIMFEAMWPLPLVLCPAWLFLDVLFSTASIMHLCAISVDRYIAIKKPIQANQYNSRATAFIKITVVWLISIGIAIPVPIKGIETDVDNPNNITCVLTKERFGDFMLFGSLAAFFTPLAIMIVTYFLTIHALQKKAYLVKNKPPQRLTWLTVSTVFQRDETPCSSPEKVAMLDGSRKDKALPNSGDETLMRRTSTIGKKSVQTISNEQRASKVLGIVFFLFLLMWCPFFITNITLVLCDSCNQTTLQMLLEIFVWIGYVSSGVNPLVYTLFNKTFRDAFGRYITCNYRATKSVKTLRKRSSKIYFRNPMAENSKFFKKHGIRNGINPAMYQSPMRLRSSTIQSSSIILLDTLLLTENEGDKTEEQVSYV
AVPR1A, sequence (P37288 whole entry): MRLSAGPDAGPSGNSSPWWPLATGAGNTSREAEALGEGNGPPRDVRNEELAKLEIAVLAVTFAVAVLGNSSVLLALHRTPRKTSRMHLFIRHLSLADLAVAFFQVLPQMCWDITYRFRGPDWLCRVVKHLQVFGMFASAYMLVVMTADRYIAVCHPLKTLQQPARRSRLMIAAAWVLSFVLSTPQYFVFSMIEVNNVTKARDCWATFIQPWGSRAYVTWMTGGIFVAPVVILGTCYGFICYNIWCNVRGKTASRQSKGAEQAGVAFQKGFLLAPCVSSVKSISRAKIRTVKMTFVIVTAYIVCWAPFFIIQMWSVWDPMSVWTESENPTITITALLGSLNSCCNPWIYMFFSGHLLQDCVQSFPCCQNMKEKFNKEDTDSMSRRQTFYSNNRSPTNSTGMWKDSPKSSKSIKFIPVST
ADORA2A, sequence (P29274 whole entry): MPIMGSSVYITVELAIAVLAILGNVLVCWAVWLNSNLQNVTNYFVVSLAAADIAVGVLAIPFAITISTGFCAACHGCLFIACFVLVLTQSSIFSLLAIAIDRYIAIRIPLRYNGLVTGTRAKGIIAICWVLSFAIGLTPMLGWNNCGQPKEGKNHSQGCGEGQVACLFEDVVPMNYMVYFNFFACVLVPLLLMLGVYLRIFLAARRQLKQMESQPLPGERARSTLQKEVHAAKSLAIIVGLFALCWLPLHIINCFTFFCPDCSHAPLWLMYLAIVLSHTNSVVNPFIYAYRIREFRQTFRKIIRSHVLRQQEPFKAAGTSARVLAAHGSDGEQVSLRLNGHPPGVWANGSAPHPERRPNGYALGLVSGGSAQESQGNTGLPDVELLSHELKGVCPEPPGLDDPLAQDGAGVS
HTR2A, sequence (P28223 whole entry): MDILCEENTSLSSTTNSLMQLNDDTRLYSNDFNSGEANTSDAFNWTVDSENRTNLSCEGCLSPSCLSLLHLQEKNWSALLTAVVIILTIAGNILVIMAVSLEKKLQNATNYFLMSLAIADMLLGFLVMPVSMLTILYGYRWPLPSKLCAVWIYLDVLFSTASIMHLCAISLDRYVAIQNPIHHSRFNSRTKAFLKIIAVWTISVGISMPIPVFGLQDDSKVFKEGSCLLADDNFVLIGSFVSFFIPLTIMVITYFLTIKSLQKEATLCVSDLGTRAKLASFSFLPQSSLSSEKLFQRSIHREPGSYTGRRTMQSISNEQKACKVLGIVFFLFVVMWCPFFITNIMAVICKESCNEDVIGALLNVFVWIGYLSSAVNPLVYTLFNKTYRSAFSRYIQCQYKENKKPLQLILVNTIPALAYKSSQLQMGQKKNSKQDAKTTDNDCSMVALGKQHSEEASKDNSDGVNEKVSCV
T6 sequence (P21728 whole entry): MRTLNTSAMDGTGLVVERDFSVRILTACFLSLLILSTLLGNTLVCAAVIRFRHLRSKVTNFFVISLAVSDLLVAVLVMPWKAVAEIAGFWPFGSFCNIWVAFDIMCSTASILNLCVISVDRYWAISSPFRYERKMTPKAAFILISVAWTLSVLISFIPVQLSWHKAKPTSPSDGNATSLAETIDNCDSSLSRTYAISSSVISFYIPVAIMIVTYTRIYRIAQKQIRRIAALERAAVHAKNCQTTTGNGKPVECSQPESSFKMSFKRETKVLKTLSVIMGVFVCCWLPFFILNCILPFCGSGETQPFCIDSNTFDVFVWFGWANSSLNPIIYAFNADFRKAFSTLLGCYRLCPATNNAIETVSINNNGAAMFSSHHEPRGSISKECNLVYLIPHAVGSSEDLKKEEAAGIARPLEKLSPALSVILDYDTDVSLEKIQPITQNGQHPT

Work on `C[C@H]1C[C@@H](O)CN(c2ncc(Cl)c(Nc3ccc4c(c3)c3c(c(=O)n4C)OCC(F)(F)[C@H](C4CC4)N3)n2)C1` [12a CCT373566, (S)-10-((5-Chloro-2-((3R,5S)-3-hydroxy-5-methylpiperidin-1-yl)pyrimidin-4-yl)amino)-2-cyclopropyl-3,3-difluoro-7-methyl-1,2,3,4-tetrahydro-[1,4]oxazepino[2,3-c]quinolin-6(7H)-one] yielded an Emax (CCKAR; read-out: Max Response) of 0%, a pIC50 (CCKAR; read-out: RC50 (IC50)) of under 5.00 and an Emax (EDNRA; read-out: Max Response) of 0%. For the same compound, the pIC50 (EDNRA; read-out: RC50 (IC50)) was under 5.00, the Emax (AVPR1A; read-out: Max Response) was 0% and the pIC50 (AVPR1A; read-out: RC50 (IC50)) was under 5.00. It also gave an Emax (ADORA2A; read-out: Max Response) of 4.91%, a pIC50 (ADORA2A; read-out: RC50 (IC50)) of under 5.00 and an Emax (HTR2B; read-out: Max Response) of 24.2%. The pIC50 (HTR2B; read-out: RC50 (IC50)) was under 5.00, the Emax (HRH1; read-out: Max Response) was 0% and the pIC50 (HRH1; read-out: RC50 (IC50)) was under 5.00. It also gave an Emax (CHRM1; read-out: Max Response) of 3.44%, a pIC50 (CHRM1; read-out: RC50 (IC50)) of under 5.00 and an Emax (HTR2A; read-out: Max Response) of 1.76%. The pIC50 (HTR2A; read-out: RC50 (IC50)) was under 5.00, the Emax (CHRM3; read-out: Max Response) was 0% and the pIC50 (CHRM3; read-out: RC50 (IC50)) was under 5.00. The “OCI-Ly3 GI50” value (OCI-Ly3; 14-day proliferation assay, BCL6 low-expressing cell line) was “not seen”, the GI50 (OCI-Ly3; Homo sapiens, OCI-Ly3, 336 h, read-out: OCI-Ly3 GI50) was 1.9 µM and the Emax (HTR1A; read-out: Max Response) was 13.8%. For the same compound, the pIC50 (HTR1A; read-out: RC50 (IC50)) was under 5.00, the Emax (DRD1; read-out: Max Response) was 51.9% and the pIC50 (DRD1; read-out: RC50 (IC50)) was 5.31. For the same compound, the Emax (ADRB1; read-out: Max Response) was 57.3%, the pIC50 (ADRB1; read-out: RC50 (IC50)) was under 5.00 and the “BCL6 TR-FRET pIC50 mean” value (human BCL6 BTB domain; mean of replicates) was 8.6638. For the same compound, the IC50 (human BCL6 BTB domain; read-out: BCL6 TR-FRET IC50 individual replicates, single replicate values) was 2.3 nM (3×) and 2.1 nM (3×).
